Laboratory results: patent publication US4476299A, “Cyclic polyamino containing compounds having therapeutic effect and the preparation thereof” (priority 1981, dated 1984)
Entries after “also recorded” stand apart in the source; their conditions may differ. Like-named read-outs stand apart in the source and are kept apart here.

Assays:
P-388 cells = experiment: Antineoplastic action against implanted P-388 tumor, CDF1 mice, i.p.-i.p. (T/C %); format: in vivo; conditions: for T/C (%): Table 7, P388 (i.p.-i.p.)
Description: (§1) In this animal test, the antineoplastic action against the implanted tumor was examined, in lower animals in vivo, in repsect to the compounds according to the present invention, by using CDF1 mice.
(§2) To the peritoneal cavity of each group of mice consisting of six CDF1 mice per group, 10^6 /0.1 ml of P-388 cells or 10^5 /0.1 ml of L-1210 cells were implanted. […] While to the control groups of CDF1 mice, P-388 and L-1210 cells were implanted in the same manner and they were bred without administration of the compounds. […]

MM2 = experiment: Antineoplastic action against MM2 tumor, i.p.-i.p. (T/C %); format: in vivo, mice; conditions: for T/C (%) / 60< (mice, fraction of group): Table 7, MM2 (i.p.-i.p.); for effective against MM2: in words
Description: as §1
(§3) As the screening test for confirming antineoplasticity of certain compound, it is known in the art that there are two kinds of tests, one being "in vitro" test wherein carcinoma cells in propagation in a test tube are used, the other being "in vivo" test wherein lower animals implanted with carcinoma cells are used. In Japan. the "in vivo" test is usually carried out by using Ehrlich tumor, L-1210 cells, sarcoma 180 cells, Yoshida sarcoma or ascites-liver tumor as ascitic tumor and immobilized carcinoma mentioned above as fixed carcinoma. Recently, a new method for confirming the antineoplasticity has been developed, in which lymphocytic leukemia cells P-388 are used. It is known that P-388 has more strong sensitivity than L-1210. As fixed carcinoma, there may be mentioned, for example Lewis lung cancer B-16 melanoma, MM2, MOPC 104E, Colon 26, MH 134, C-1498 and the like.
(§4) The new compounds of the present invention were confirmed to be effective to the P-388 cells in the light of the screening test's results hereinbefore described.

L-1210 cells = experiment: Antineoplastic action against implanted L-1210 tumor, CDF1 mice, i.p.-i.p. (T/C %); format: in vivo; conditions: Table 7, L1210 (i.p.-i.p.)
Description: as §1, §2

B-16 melanoma = experiment: Antineoplastic action against B-16 melanoma, i.p.-i.p. (T/C %); format: in vivo, mice; conditions: for T/C (%): Table 7, B16 (i.p.-i.p.); for effective against B-16 melanoma: in words
Description: as §1, §3, §4

CD-1 (IRC) mice = experiment: Neuropharmacological multidimensional observation (modified Arwin method and Smith method) in mice; format: in vivo, 4-weeks CD-1 (IRC) mice; conditions: i.p., 1 to 20 mg/kg, observed every 30 minutes for 180 minutes
Description: In this test, other pharmacological effects which may be obtained by these compounds were investigated.
Each compound of the invention was intraperitoneally administered to 4-weeks CD-1 (IRC) mice (Nippon Charles Liver K.K.) in the dose of 1 to 20 mg/kg with using mice groups consisting of three mice per group. […] The observation was carried out according to the modified Arwin method and Smith method, i.e., neuropharmacological multidimentional observation method.
Making a comparison between the symptom observed and the pattern of the pharmacological action due to the known medicines, it has been discovered that each compound of the invention has the following pharmacological effect.

[1] = Toxicity test: lethal dose in mice (Litchfield-Wilcoxon); design: species or system male 4-weeks CD-1 (ICR) mice; conditions: mouse, in vivo, 7 days, read-out: LD50 and 95% Confidence Limit
Description: With respect to the compounds of this invention, the lethal dose was determined as follows.
By using male 4-weeks CD-1 (ICR) mice consisting of 5 to 10 mice per group, the desired amount of each compound of this invention was suspended in 0.5% CMC solution and the resultant suspension was administered to each mouse intraperitoneally or intravenously. Observing the life or death as well as the general symptome during 7 days after the administration of the compounds, the value of LD50 for each compounds was estimated from the lethal population observed on the basis of the Litchfield-Wilcoxon method.

[2] = Mus musculus, P388, ip, read-out: T/C %, (Treatment/Control %)
[3] = Mus musculus, ip, Table 6, P388, dose 10 mg/kg, i.p., read-out: T/C %, (Treatment/Control %)

SMILES | response vs control in vivo at 0.05 mg/kg (P-388 cells; [2]) [%] | response vs control in vivo at 0.5 mg/kg (P-388 cells; [2]) [%] | response vs control in vivo at 2 mg/kg (P-388 cells; [2]) [%] | T/C (%) (P-388 cells; 0.05 mg/kg) | T/C (%) (P-388 cells; 0.5 mg/kg) | T/C (%) (P-388 cells; 2 mg/kg) | T/C (%) (P-388 cells; 5 mg/kg) | T/C (%) (MM2; 0.5 mg/kg) | 60< (mice, fraction of group) (MM2; 2 mg/kg) | T/C (%) (MM2; 2 mg/kg) | effective against MM2 (MM2) | T/C (%) (L-1210 cells; 0.5 mg/kg) | T/C (%) (L-1210 cells; 2 mg/kg) | T/C (%) (B-16 melanoma; 0.5 mg/kg) | T/C (%) (B-16 melanoma; 2 mg/kg) | T/C (%) (B-16 melanoma; 4 mg/kg) | effective against B-16 melanoma (B-16 melanoma) | response vs control in vivo at 10 mg/kg (P-388 cells; [2]) [%] | T/C (%) (MM2; 10 mg/kg) | T/C (%) (L-1210 cells; 10 mg/kg) | further results
CCCCCCOc1ccc2cc1Oc1ccc(cc1)CC1C(=O)N(C)C(C2)C(=O)NC(C)C(=O)NC(C)C(=O)N(C)C(Cc2ccc(OC)cc2)C(=O)NC(C)C(=O)N1C (stereo not shown) [Ex. 2, n-hexylether of the compound TPC-A] | 110 | 137 | 154 | 130.4 | 143.5 | 150.0 | 176.1 | 110.3 | 3/6 | 129.3 | effective | 115.6 | 126.6 | 130.5 | 158.2 | 136.2 | effective against B-16 melanoma |  |  |  | response vs control in vivo at 4 mg/kg (P-388 cells; [2]): 173%; 60< (mice, fraction of group) (MM2; 4 mg/kg): 1/7; T/C (%) (MM2; 4 mg/kg): 161.8%; T/C (%) (L-1210 cells; 4 mg/kg): 130.9%
CCCCCC(=O)Oc1ccc2cc1Oc1ccc(cc1)CC1C(=O)N(C)C(C2)C(=O)NC(C)C(=O)NC(C)C(=O)N(C)C(Cc2ccc(OC)cc2)C(=O)NC(C)C(=O)N1C (stereo not shown) [Ex. 21, caproate of TPC-A] | 134 | 143 | 152 |  |  | 152.2 |  | 112.1 | 2/6 | 127.3 |  | 115.6 | 126.6 | 143.5 | 152.0 |  |  | 197 | 93.9 | 67.3 | T/C (%) (P-388 cells; 0.01 mg/kg): 133.7%; T/C (%) (P-388 cells; 0.1 mg/kg): 135.9%; T/C (%) (B-16 melanoma; 5 mg/kg): 165.5%
COc1ccc(CC2C(=O)NC(C)C(=O)N(C)C3Cc4ccc(cc4)Oc4cc(ccc4OC(C)=O)CC(C(=O)NC(C)C(=O)NC(C)C(=O)N2C)N(C)C3=O)cc1 (stereo not shown) [Ex. 22, Acetic acid ester of TPC-A] |  |  |  | 133.3 | 155.6 | 168.9 | 175.8 | 102.5 |  | 109.2 | effective | 110.0 | 114.4 | 116.9 | 128.5 | 147.8 | effective against B-16 melanoma |  | 120.9 | 128.9 | Pharmacological effect estimated (CD-1 (IRC) mice): emetic action; also recorded: psychotropic action; also recorded: antidiuretic action; response vs control in vivo at 0.05 mg/kg (P-388 cells; Mus musculus, ip, Table 6, P388, dose 0.05 mg/kg, i.p., read-out: T/C %, (Treatment/Control %)): 133%; response vs control in vivo at 0.5 mg/kg (P-388 cells; Mus musculus, ip, Table 6, P388, dose 0.5 mg/kg, i.p., read-out: T/C %, (Treatment/Control %)): 156%; response vs control in vivo at 2 mg/kg (P-388 cells; Mus musculus, ip, Table 6, P388, dose 2 mg/kg, i.p., read-out: T/C %, (Treatment/Control %)): 169%; response vs control in vivo at 10 mg/kg (P-388 cells; [3]): 195%; T/C (%) (P-388 cells; 10 mg/kg): 194.7%; T/C (%) (MM2; 5 mg/kg): 117.8%; T/C (%) (L-1210 cells; 0.05 mg/kg): 100.9%; T/C (%) (L-1210 cells; 5 mg/kg): 120.0%; LD50 at 168 h ([1]; intravenous): 20 mg/kg; LD50 at 168 h ([1]; ip, intraperitoneal): 18.4 mg/kg; T/C (%) (B-16 melanoma; 8 mg/kg): 141.1%
CCCCCCCCCC(=O)Oc1ccc2cc1Oc1ccc(cc1)CC1C(=O)N(C)C(C2)C(=O)NC(C)C(=O)NC(C)C(=O)N(C)C(Cc2ccc(OC)cc2)C(=O)NC(C)C(=O)N1C (stereo not shown) [Ex. 30] | 122 | 146 | 152 |  |  |  |  |  |  |  | effective |  |  |  |  |  | effective against B-16 melanoma | 151 |  |  | 
COc1ccc(CC2C(=O)NC(C)C(=O)N(C)C3Cc4ccc(cc4)Oc4cc(ccc4O)CC(C(=O)NC(C)C(=O)NC(C)C(=O)N2C)N(C)C3=O)cc1 (stereo not shown) [TPC-A] |  |  |  |  |  |  |  |  |  |  |  |  |  |  |  |  |  |  |  |  | Pharmacological effect estimated (CD-1 (IRC) mice): emetic action; also recorded: anorexigenic action; also recorded: psychotropic action; also recorded: papaverine action; response vs control in vivo at 10 mg/kg (P-388 cells; [3]): 187%; antineoplastic effect / effective to P-388 cells (P-388 cells; in words): has antineoplastic effect by itself; LD50 at 168 h ([1]; intravenous): 34 mg/kg; LD50 at 168 h ([1]; ip, intraperitoneal): 16 mg/kg
